Assays:
[1] = tested on: cellular pERK in NCI-H1975 cells (EGFR/L858R-T790M); assay: pERK Potency Assay; type: cell-based; settings: Homo sapiens, 1 hour incubation, Western blot, read-out: IC50 value, cellular pERK level
From the text: The purpose of this assay is to measure the ability of test compounds to inhibit SOS1 function in cells. SOS1 activates RAS proteins by catalyzing the conversion of RAS-GDP to RAS-GTP in response to receptor tyrosine kinase activation. Activation of RAS induces a sequence of cellular signaling events that results in increased phosphorylation of ERK at Threonine 202 and Tyrosine 204 (pERK). The procedure described below measured the level of cellular pERK in response to test compounds in NCI-H1975 cells (EGFR/L858R-T790M).
NCI-H1975 cells were grown and maintained using media and procedures recommended by the ATCC. On the day prior to compound addition, cells were plated in 24-well cell culture plates (0.9 ml/well) and grown overnight in a 37° C., 5% CO2 incubator. Test compounds were prepared with 3-fold serial dilutions in DMSO, with a top concentration of 10 mM. On the day of the assay, 100 uL of each test compound diluted at 1:100 in media was added to each well of cell culture plate with final concentrations of the compound spanning 0.5 nM to 10 uM. After the compound was added, the cells were incubated for 1 hour at 37° C., 5% CO2. Following incubation, culture medium was removed, and the cells were washed once with phosphate buffered saline and lysed with lysis buffer (20 mM Tris-HCl, pH 7.5, 150 mM NaCl, 1 mM EDTA, 1 mM EGTA, 0.8% NP-40 plus 2× protease and phosphatase inhibitors). Cellular pERK level was determined using the Western blot analysis and quantified with Liqor software. Signal from Western blot was plotted and IC50 values were determined by fitting a 4-parameter sigmoidal concentration response model.

NCI-H1975 cells = assay: 3D cell proliferation assay; type: cell-based; settings: Homo sapiens, ultra low attachment plate, 96 hours, 3D CTG
Experimental: This assay supports the molecular mode of action of compounds. Low IC50 values are indicative of high potency of the SOS1 inhibition. […] This supports the molecular mode of action of the SOS1 inhibitors as selectively targeting cancer cells dependent on receptor tyrosine kinase-RAS/SOS1-family protein function. Cell proliferation assays were performed in three-dimensional (3D) anchorage-independent conditions in 96 well ultra-low attachment plate with the following human cell lines:
NCI-H1975: human non-small cell lung cancer (NSCLC) with wild type KRAS and EGFR L858R/T790M mutation;
Cell lines were purchased from the American Type Culture Collection (ATCC), NCI, or European Collection of Authenticated Cell Cultures (ECACC). All cell lines were maintained in RPMI-1640 or DMEM with 10% heat inactivated fetal bovine serum.
Cells growing in log phase were detached with Gibco™ TrypLE™ Express Enzyme and plated in 96 well ultra low attachment plate at 15000 to 20000 cells/well in 100 μl of media. After overnight incubation at 37° C. and 5% CO2, the cells were treated with compounds (50 μL/well) at the final concentrations spanning 1 nM to 20 μM. Cells were incubated at 37° C., 5% CO2 and 95% humidity incubator for 96 hours. At the end of incubation, a 3D CTG reagent from Promega was added to each well according to vendors recommendation and mixed for 10 minutes in dark. The luminescence signals were determined using Biotek plate reader. The data was fitted using a sigmoidal curve analysis program (GraphPAD Prism) with variable hill slope.

- IC50 [1]: < 100 nM
- IC50 (NCI-H1975 cells): < 100 nM
SMILES: C#C[C@@H](Nc1nc(C)nc2cc(=O)n(C3(C)CCN(C(C)=O)CC3)cc12)c1cccc(C(F)(F)F)c1C [Compound 33, (R)-6-(1-acetyl-4-methylpiperidin-4-yl)-2-methyl-4-((1-(2-methyl-3-(trifluoromethyl)phenyl)prop-2-yn-1-yl)amino)pyrido[4,3-d]pyrimidin-7(6H)-one]

From patent US20220324862A1, “PYRIDOPYRIMIDINONE COMPOUNDS” (Acerand Therapeutics (USA) Limited, priority 2021, published 2022)
